US9399623B2, “Quinoline derivatives and their use in neurodegenerative diseases” (Merck Patent GmbH, priority 2014, dated 2016)
pIC50: −log10 of the molar value.

How the values were obtained:
P2X7 [1] = target: T1, P2X7 (Homo sapiens, UniProt Q99572); test: Pore permeation assay (YO PRO dye uptake, BzATP-induced); format: cell-based; design: expressed in transfected cells; host or cells: HEK293; settings: HEK293 transfected with human P2X7 receptor; YO PRO dye 1 uM, BzATP 10 uM; read-out: hP2X7 IC50
T1 sequence (Q99572 1-595): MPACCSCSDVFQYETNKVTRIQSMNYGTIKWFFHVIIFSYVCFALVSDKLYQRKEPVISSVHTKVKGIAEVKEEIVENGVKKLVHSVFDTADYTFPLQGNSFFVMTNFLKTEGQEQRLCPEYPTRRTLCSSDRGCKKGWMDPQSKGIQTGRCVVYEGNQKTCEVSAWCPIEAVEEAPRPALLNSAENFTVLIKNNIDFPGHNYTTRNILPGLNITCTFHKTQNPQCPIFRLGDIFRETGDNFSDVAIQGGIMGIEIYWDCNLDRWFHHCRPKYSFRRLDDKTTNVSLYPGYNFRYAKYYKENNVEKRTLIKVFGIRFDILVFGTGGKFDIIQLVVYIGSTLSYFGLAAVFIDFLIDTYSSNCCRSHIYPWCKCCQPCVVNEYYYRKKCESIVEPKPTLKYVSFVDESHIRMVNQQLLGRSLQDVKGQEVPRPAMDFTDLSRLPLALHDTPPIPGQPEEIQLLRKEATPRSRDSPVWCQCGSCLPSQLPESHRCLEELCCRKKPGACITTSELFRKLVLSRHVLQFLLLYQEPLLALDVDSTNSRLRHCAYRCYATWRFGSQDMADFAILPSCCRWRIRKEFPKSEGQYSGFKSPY
Description: Agonist-induced pore formation was determined by measuring cellular uptake of YO PRO fluorescence dye in HEK293 transfected with human P2X7 receptor. A HEK293 cell over expressing human P2X7 was harvested using HQTase reagent to detach the cells from T75 cm flask. The harvested cells are centrifuged @ 1200 rpm for 5 min at room temperature. The viability of cells was determined by Trypan blue dye and the cells are plated @ 10,000 cell/well in 50 ul volume in a 384 W BD Poly lysine coated plate and incubated overnight at 37 C. After overnight incubation, the culture medium was replaced with 35 ul/well assay buffer (5 mM KCl, 0.1 mM CaCl2, 5 mM Glucose, 10 mM HEPES buffer pH7.4 containing 125 mM NaCl. The serial dilution of compounds was performed using Bravo liquid handling instrument and the compounds were added using Bravo to the cell assay plate starting at 2.5 uM with three dilutions for 10 points. The positive control inhibitor compound was added to column 23. The plate was shaken slowly on a plate shaker for 10 seconds. The cells were incubated with the compound for 20 minutes at room temperature. After the incubation period, YO PRO dye (1 uM) along with BzATP (10 uM) were added to cells at 10 ul/well. The plate was centrifuged at 1000 rpm for 5 seconds and incubated at room temperature for 30 minutes. The uptake of YO PRO dye into the cells was measured using Envision Fluorescence plate reader instrument (Perkin Elmer).

P2X7 [2] = target: T1, P2X7; test: IL-1β release assay in THP-1 cells (sandwich ELISA); format: cell-based; design: release of mature IL-1β in the culture medium of THP-1 cells; endogenous in cells; host or cells: THP-1 cells (PMA-differentiated, LPS-primed); settings: PMA, LPS primed, stimulated with 0.8 mM BzATP, mature IL-1β release, read-out: hTHP-1/IL-ib IC50
Description: The activation of P2X7 by ATP leads to a fast transient activation of cells resulting in influx of Ca^2+ followed by conversion of pro-IL-1β to active IL-1β. The functional activity of P2X7 compounds was measured by the release of mature IL-1β in the culture medium of THP-1 cells, detected by sandwich ELISA. Cells were maintained in complete growth medium (RPMI 1640+10% HI-FCS+2 mM L-glutamine+1×PS). […] THP-1 cells were harvested from the flask in 50 ml by centrifugation for 3 min at 100 g. The cells were resuspended to 2×10^5 cells/ml in medium supplemented with 0.5 μM PMA and incubated. The cells were washed and resuspended to 1.5×10^5 cells/ml in medium complemented with 10 ng/ml LPS, and the cells were primed for 4 h at 37° C., 5% CO2. After addition of 20 μL of prediluted test compounds, blank, standard and control reagents, cells were incubated for a further 20 min at 37° C. and stimulated with 0.8 mM BzATP for 30 minutes. The cells were centrifuged, supernatant was collected and the presence of mature IL-1β was detected using Dual human IL-1b kit following manufacturer's instruction. The tetrahydrobenzodiazepine analogs effectively modulated the activity of P2X7 in the cells as measured by the levels of pro-inflammatory cytokine IL-1β, which is released by the activation of P2X7 receptor.

pIC50 (P2X7 [1]) | pIC50 (P2X7 [2]) | SMILES
7.00 to 8.00 | 7.00 to 8.00 | O=C(NCC1(O)CCCC(F)(F)C1)c1c(Cl)ccc2nc(N3CCC(F)C3)ccc12 (stereo not shown) [Compound 38, 6-Chloro-2-(3-fluoropyrrolidin-1-yl)-quinoline-5-carboxylic acid (3,3-difluoro-1-hydroxycyclohexylmethyl)-amide]
7.00 to 8.00 | 7.00 to 8.00 | O=C(NCC1CCCC(F)(F)C1)c1c(Cl)ccc2nc(N3CCC(F)C3)ccc12 (stereo not shown) [Compound 39, 6-Chloro-2-(3-fluoropyrrolidin-1-yl)-quinoline-5-carboxylic acid (3,3-difluoro-cyclohexylmethyl)-amide]
7.00 to 8.00 | 7.00 to 8.00 | O=C(NCC1CCC(F)(F)CC1)c1c(Cl)ccc2nc(N3CC[C@H](F)C3)ccc12 [Compound 41, 6-Chloro-2-((S)-3-fluoropyrrolidin-1-yl)-quinoline-5-carboxylic acid (4,4-difluoro-cyclohexylmethyl)-amide]
7.00 to 8.00 | 6.30 to 7.00 | O=C(NCC1CCC(F)(F)CC1)c1c(Cl)ccc2nc(C3=CCCC3)ccc12 [Compound 42, 6-Chloro-2-cyclopent-1-enyl-quinoline-5-carboxylic acid (4,4-difluoro-cyclohexyl methyl)-amide]
7.00 to 8.00 | 6.30 to 7.00 | O=C(NCC1CCC(F)(F)CC1)c1c(Cl)ccc2nc(C3CCOCC3)ccc12 [Compound 47, 6-Chloro-2-(tetrahydro-pyran-4-yl)-quinoline-5-carboxylic acid (4,4-difluoro-cyclohexyl methyl)-amide]
7.00 to 8.00 | 6.30 to 7.00 | O=C(NCC1(O)CCCC(F)(F)C1)c1c(Cl)ccc2nc(N3CCC3)ccc12 (stereo not shown) [Compound 54, 2-(Azetidin-1-yl)-6-chloro-quinoline-5-carboxylic acid (3,3-difluoro-1-hydroxycyclohexylmethyl)-amide]
7.00 to 8.00 | 6.30 to 7.00 | O=C(NCC1CCC(F)(F)CC1)c1c(Cl)ccc2nc(N3CCC(C(F)F)C3)ccc12 (stereo not shown) [Compound 59, 6-Chloro-2-(3-difluoromethyl-pyrrolidin-1-yl)-quinoline-5-carboxylic acid (4,4-difluoro-cyclohexylmethyl)-amide]
7.00 to 8.00 | 6.30 to 7.00 | O=C(NCC1CCC(F)(F)CC1)c1c(Cl)ccc2nc(NCCCO)ccc12 [Compound 60, 6-Chloro-2-(3-hydroxy-propylamino)-quinoline-5-carboxylic acid (4,4-difluoro-cyclo hexyl methyl)-amide]

Further lines, the compound ahead of its results:

SMILES | pIC50 (P2X7 [1]) | pIC50 (P2X7 [2])
O=C(NCC1(O)CCCC(F)(F)C1)c1c(Cl)ccc2nc(N3CC[C@H](F)C3)ccc12 (stereo partly drawn) [Compound 36, 6-Chloro-2-((S)-3-fluoropyrrolidin-1-yl)-quinoline-5-carboxylic acid (3,3-difluoro-1-hydroxycyclohexylmethyl)-amide] | 7.00 to 8.00 | 7.00 to 8.00
O=C(NCC1(O)CCCC(F)(F)C1)c1c(Cl)ccc2nc(N3CC[C@@H](F)C3)ccc12 (stereo partly drawn) [Compound 37, 6-Chloro-2-((R)-3-fluoropyrrolidin-1-yl)-quinoline-5-carboxylic acid (3,3-difluoro-1-hydroxycyclohexylmethyl)-amide] | 7.00 to 8.00 | 7.00 to 8.00
CN(C)c1ccc2c(C(=O)NCC3CCC(F)(F)CC3)c(Cl)ccc2n1 [Compound 44] | 7.00 to 8.00 | 7.00 to 8.00
O=C(NCC1CCC(F)(F)CC1)c1c(Cl)ccc2nc(N3CCC(CO)C3)ccc12 (stereo not shown) [Compound 45] | 7.00 to 8.00 | 7.00 to 8.00
O=C(NCC1(O)CCCC(F)(F)C1)c1c(Cl)ccc2nc(N3CCC(F)(F)C3)ccc12 (stereo not shown) [Compound 46, 6-Chloro-2-(3,3-difluoropyrrolidin-1-yl)-quinoline-5-carboxylic acid (3,3-difluoro-1-hydroxycyclohexylmethyl)-amide] | 7.00 to 8.00 | 7.00 to 8.00
O=C(NCC1CCC(F)(F)CC1)c1c(Cl)ccc2nc(C3CCCCC3)ccc12 [Compound 48, 6-Chloro-2-cyclohexyl-quinoline-5-carboxylic acid (4,4-difluoro-cyclohexylmethyl)-amide] | 7.00 to 8.00 | 6.30 to 7.00
O=C(NCC1CCC(F)(F)CC1)c1c(Cl)ccc2nc(N3CCC3)ccc12 [Compound 49, 2-(azetidin-1-yl)-6-Chloro-quinoline-5-carboxylic acid (4,4-difluoro-cyclohexylmethyl)-amide] | 7.00 to 8.00 | 7.00 to 8.00
O=C(NCC1CCC(F)(F)CC1)c1c(Cl)ccc2nc(N3CCCC3)ccc12 [Compound 50] | 7.00 to 8.00 | 6.30 to 7.00
CC(C)(C)OC(=O)N1CC=C(c2ccc3c(C(=O)NCC4CCC(F)(F)CC4)c(Cl)ccc3n2)CC1 [Compound 51, 4-{6-Chloro-5-[(4,4-difluoro-cyclohexylmethyl)-carbamoyl]-quinolin-2-yl}-3,6-dihydro-2H-pyridine-1-carboxylic acid tert-butyl ester] | 7.00 to 8.00 | 6.30 to 7.00
CN(C)C1CCN(c2ccc3c(C(=O)NCC4CCC(F)(F)CC4)c(Cl)ccc3n2)C1 (stereo not shown) [Compound 52] | 7.00 to 8.00 | 6.30 to 7.00
CCOC(=O)C1CCCN(c2ccc3c(C(=O)NCC4CCC(F)(F)CC4)c(Cl)ccc3n2)C1 (stereo not shown) [Compound 55, 1-{6-Chloro-5-[(4,4-difluoro-cyclohexylmethyl)-carbamoyl]-quinolin-2-yl}-piperidine-3-carboxylic acid ethyl ester] | 7.00 to 8.00 | < 6.00
O=C(NCC1CCC(F)(F)CC1)c1c(Cl)ccc2nc(N3CCC(CCO)C3)ccc12 (stereo not shown) [Compound 56] | 7.00 to 8.00 | 7.00 to 8.00
O=C(NCC1CCC(F)(F)CC1)c1c(Cl)ccc2nc(N3CCC(F)(F)C3)ccc12 [Compound 58] | 7.00 to 8.00 | 6.30 to 7.00
O=C(NCC1CCC(F)(F)CC1)c1c(Cl)ccc2nc(N3CC[C@@H](O)C3)ccc12 [Compound 61] | 7.00 to 8.00 | 6.30 to 7.00
COCCCOc1ccc2c(C(=O)NCC3(O)CCC(F)(F)CC3)c(Cl)ccc2n1 [Compound 62, 6-Chloro-2-(3-methoxy-propoxy)-quinoline-5-carboxylic acid (4,4-difluoro-1-hydroxy-cyclohexyl methyl)-amide] | 7.00 to 8.00 | 6.30 to 7.00
O=C(NCC1CCCC(F)(F)C1)c1c(Cl)ccc2nc(N3CCC(CCO)C3)ccc12 (stereo not shown) [Compound 63, 6-Chloro-2-(3-hydroxyethyl-pyrrolidin-1-yl)-quinoline-5-carboxylic acid (3,3-difluoro-cyclohexylmethyl)-amide] | 7.00 to 8.00 | 6.30 to 7.00
O=C(NCC1CCC(F)(F)CC1)c1c(Cl)ccc2nc(CCCO)ccc12 [Compound 64, 6-Chloro-2-(3-hydroxy-propyl)-quinoline-5-carboxylic acid (4,4-Difluorocyclohexyl methyl)-amide] | 7.00 to 8.00 | 6.30 to 7.00
O=C(NCC1(O)CCCCCC1)c1c(Cl)ccc2ncccc12 [Compound 65] | 7.00 to 8.00 | 6.30 to 7.00
